{"source": "patent US11919854B2", "about": "“P2RX7 modulators in therapy” (Centre national de la recherche scientifique, priority 2018, dated 2024)", "target": "T1, mouse P2RX7 (mP2RX7) (Mus musculus, UniProt Q9Z1M0)", "T1 construct": "expressed in transfected cells; host or cells: HEK cells", "T1 sequence (Q9Z1M0 1-595)": "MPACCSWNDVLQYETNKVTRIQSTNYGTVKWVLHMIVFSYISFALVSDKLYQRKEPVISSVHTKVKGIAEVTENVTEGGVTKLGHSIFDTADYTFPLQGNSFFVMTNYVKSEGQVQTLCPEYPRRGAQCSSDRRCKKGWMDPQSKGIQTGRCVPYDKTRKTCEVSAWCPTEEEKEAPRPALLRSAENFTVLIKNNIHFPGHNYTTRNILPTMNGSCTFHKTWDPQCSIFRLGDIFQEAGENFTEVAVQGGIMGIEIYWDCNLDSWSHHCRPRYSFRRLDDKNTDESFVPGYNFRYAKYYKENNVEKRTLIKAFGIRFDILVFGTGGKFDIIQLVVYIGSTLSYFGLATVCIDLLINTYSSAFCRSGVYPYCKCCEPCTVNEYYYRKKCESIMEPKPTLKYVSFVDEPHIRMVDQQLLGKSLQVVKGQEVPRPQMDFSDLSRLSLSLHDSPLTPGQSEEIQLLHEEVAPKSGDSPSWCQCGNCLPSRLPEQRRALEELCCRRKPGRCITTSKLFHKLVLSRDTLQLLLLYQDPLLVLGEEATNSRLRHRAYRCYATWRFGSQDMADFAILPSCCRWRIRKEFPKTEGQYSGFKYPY", "assay": "Channel activity (Fluo4-AM) and large pore opening (Topro3) by flow cytometry, HEK cells expressing mP2RX7, 1 h BzATP", "type": "cell-based", "experimental": "Calcium channel activity (Fluo4AM probe) and large pore opening (Topro3 probe) were analysed by FACS on mP2RX7 HEK cells. Cells were non stimulated (NS) or treated with BzATP (500 μM) alone or in the presence of HEI2314, HEI2328, HEI2333 or HEI2336 (used at 50 μM).\nCalcium channel activity (Fluo4AM probe) and large pore opening (Topro3 probe) were analysed by FACS on mock and mP2RX7 HEK cells. Cells were non stimulated (NS) or treated with BzATP (500 μM) alone or in the presence of HEI2328 used at 50 μM.\n2.1. […] Cation channel activity is assayed with the Fluo4 AM (Invitrogen) probe and opening of large pore with Topro3 (Invitrogen). In each experiment 2×10^6 cells were incubated with 50 nM Fluo4-AM for 30 minutes. After washing, cells were treated with 500 μM BzATP (3′-O-(4-benzoyl)benzoyl ATP) for 1 h, or non-treated, in presence of the compounds of the invention at 50 μM. When indicated, the Topro3 probe (8.5 nM) was added during the 1 h stimulation time. Fluorescence was assayed by flow cytometry.", "key": {"[1]": {"settings": "cells expressing mP2RX7, BzATP 500 μM"}}, "data": [{"smiles": "Nc1ncnc2c1ncn2[C@@H]1O[C@H](COP(=O)(O)OP(=O)(O)OP(=O)(O)O)[C@@H](OC(=O)c2ccc(C(=O)c3ccccc3)cc2)[C@H]1O", "note": "[BzATP, 3′-O-(4-benzoyl)benzoyl ATP, reference compound]", "values": [{"measurement": "Topro3 positive cells", "setting": "BzATP 500 μM only, 1 h, mP2RX7 cells", "result": 24.7, "unit": "%"}, {"measurement": "activity in Mock cells", "setting": "Mock HEK cells (no P2X receptors)", "result": "inactive"}, {"measurement": "increase of Ca2+ entry", "setting": "[1]", "result": 15, "unit": "fold"}, {"measurement": "increase of large pore opening", "setting": "[1]", "result": 4, "unit": "fold"}]}, {"smiles": "O=C(NCc1ccc(Cl)cc1Cl)[C@@H]1CCC(=O)N1C(=O)Nc1ccccc1Cl", "note": "[HEI2314, (S)—N^1-(2-Chlorophenyl)-N^2-(2,4-dichlorobenzyl)-5-oxopyrrolidine-1,2-dicarboxamide]", "values": [{"measurement": "Topro3 entry (large pore opening)", "setting": "compound 50 μM, BzATP 500 μM, 1 h, mP2RX7 HEK cells", "result": "increase Topro3 entry only in presence of BzATP"}]}]}
